Results as given in patent US20060122267A1, “Compositions and methods for attenuating mitochondria-mediated cell injury” (priority 2003, published 2006).
Entries after “also recorded” stand apart in the source; their conditions may differ.

Columns and labels:
perfused rat hearts = test: Langendorff isolated perfused rat heart model of ischemia-reperfusion injury; settings: 10 μM infused during equilibration; 25 minutes global ischemia, 30 minutes reperfusion; dark
Description: Hearts were perfused in constant flow mode, with Krebs-Henseleit (KH) buffer, gassed with 95/5 O2/CO2. Following equilibration (during which S-nitroso-2-mercaptopropylglycine was infused at 10 μM final concentration), global ischemia was imposed for 25 minutes, followed by 30 minutes of reperfusion. Cardiac functional parameters were measured throughout, with a left-ventricular balloon attached to a pressure transducer. Recovery of rate pressure product (RPP, i.e., left ventricular developed pressure multiplied by heart rate) was greater in S-nitroso-2-mercaptopropylglycine treated hearts. Control hearts in these experiments were subject to dark conditions.
Rat hearts were perfused according to methods well-known in the art (Digerness, et al. (2003) J. Thorac. Cardiovasc. Surg. 125:863-871), with Krebs-Henseleit (KH) buffer, gassed with 95/5 O2/CO2. […] Cardiac functional parameters (left ventricular pressure, rate pressure product, oxygen consumption, diastolic stiffness, etc.) were measured throughout, and mitochondria were isolated at the end of the procedure. Several mitochondrial parameters are then determined including respiration, Ca^2+ loading capacity, reactive oxygen species generation, permeability transition pore opening threshold, respiratory complex activities (Brookes, et al. (2002) Methods Enzymol. 359:305-319), and protein S-nitrosation as disclosed herein.

mitochondrial proteins = test: Biotin-switch analysis of mitochondrial protein S-nitrosation; type: biochemical, rat; settings: for S-nitrosation of entire mitochondrial protein extract, comparison of NO donors: S-nitrosoglutathione 1 mM, DETA-NONOate 2 mM, ONOO- 3 additions of 100 μM, 37° C., 40 minutes
Description: Rat heart mitochondria were isolated using differential centrifugation (Tompkins, et al. (2005) Biochim. Biophys. Acta PMID: 16278076). Protein was determined by the Folin-phenol method (Lowry, et al. (1951) J. Bio. Chem. 193:265-75) against a standard curve constructed using bovine serum albumin. Mitochondrial incubations and all subsequent steps were performed in the dark. One mg of mitochondrial protein was suspended in 1 mL of mitochondrial respiration buffer (Tompkins, et al. (2005) supra) containing respiratory substrates glutamate (5 mM), malate (2.5 mM) and succinate (5 mM). […] Samples were centrifuged (5 minutes, 14,000×g), and supernatants removed. The pellets were then resuspended in 1 mL of respiration buffer, and centrifuged again. Pellets were frozen in liquid N2 for subsequent analysis. For ONOO^− treatments, 4 μL of 25 mM ONOO^− stock (100 μM final concentration) was added the cap of the reaction tube, the cap quickly closed and the tube shaken immediately. The process was then repeated twice at 30 second intervals, for a total of 3 additions. Mitochondria were then pelleted, washed, and frozen as for S-nitrosoglutathione samples. Complex I activity was assayed as the rotenone-sensitive oxidation of NADH, at 340 nm in the presence of coenzyme Q1 (Borutaite, et al. (2000) supra). Complex IV was assayed by monitoring the cyanide-sensitive first-order oxidation of reduced cytochrome c, at 550 nm according to established methods (Cleeter, et al. (1994) supra).
For biotin-switch analysis, intact mitochondrial pellets (1 mg protein solubilized in extraction buffer) or chromatography column fractions were analyzed in accordance with known methods (Jaffrey & Snyder (2001) supra). Samples were separated in duplicate on non-reducing SDS-PAGE gels; half the gel was stained with COOMASSIE® blue, and the other half blotted and probed with streptavidin-HRP and ECL™ detection (GE biosciences). Blots and stained gels were aligned, and S-nitrosated proteins excised, trypsinized, and identified by peptide mass fingerprinting. Mass spectra (MALDI-TOF) were analyzed using the MASCOT™ algorithm available on the world-wide web at matrixscience.com.

[1] = test system: isolated adult rat cardiomyocytes; test: Mitochondrial H+ leak in cardiomyocytes (respiration divided by TMRE fluorescence) after ischemia-reperfusion; type: cell-based; settings: doses that protect cardiomyocyte viability
Description: Cardiomyocyte respiration rate was measured with an oxygen electrode, and membrane potential with the fluorescent dye TMRE (20 nM) in a fluorimeter. H^+ leak is essentially the amount of work the respiratory chain must do to maintain a given membrane potential, and experimentally is derived by dividing respiration by TMRE fluoresence. […] All data are means±SEM, N>3.
Adult rat cardiomyocytes were prepared by collagenase perfusion according to standard methods (Dai, et al. (2001) supra), yielding ˜4×10^6 cells per heart, >80% rod-shaped and viable. Incubations were in a shaking water bath at 37° C., each utilizing 5×10^5 cells in 5 mL of the KH buffers described below. For the control, cells were incubated for 2 hours in oxygenated KH buffer (95/5 O2/CO2). For ischemia-reperfusion treatment, cells were subjected to 30 minutes in oxygenated KH buffer, 1 hour in “ischemic” KH buffer (95/5 N2/CO2, pH 6.5, no glucose), and 30 minutes in oxygenated KH buffer. […] At the end of each protocol, cell viability was assayed (Trypan blue), and mitochondrial function determined (measurement of ΔΨm with the fluorescent probe TMRE, respiration with an O2 electrode, and S-nitrosothiol content by chemiluminescence and biotin-switch.

[2] = test system: isolated adult rat cardiomyocytes; test: Cardiomyocyte model of ischemia-reperfusion injury, cell viability by Trypan blue exclusion; type: cell-based
Description: Isolated adult rat cardiomyocytes were subjected to 1 hour ischemia (anoxic, glucose free medium, pH 6.5) followed by 30 minutes reoxygenation (labeled “HR”). Cell viability was assayed by Trypan blue exclusion. […] All data are means±SEM, N>3.
Adult rat cardiomyocytes were prepared by collagenase perfusion according to standard methods (Dai, et al. (2001) supra), yielding ˜4×10^6 cells per heart, >80% rod-shaped and viable. Incubations were in a shaking water bath at 37° C., each utilizing 5×10^5 cells in 5 mL of the KH buffers described below. For the control, cells were incubated for 2 hours in oxygenated KH buffer (95/5 O2/CO2). For ischemia-reperfusion treatment, cells were subjected to 30 minutes in oxygenated KH buffer, 1 hour in “ischemic” KH buffer (95/5 N2/CO2, pH 6.5, no glucose), and 30 minutes in oxygenated KH buffer. For the ischemia-reperfusion injury and test compound group of cells, ischemia-reperfusion injury was carried out as described above with test compound present during the 30 minute equilibration prior to ischemia-reperfusion and absent during ischemia. […] At the end of each protocol, cell viability was assayed (Trypan blue), and mitochondrial function determined (measurement of ΔΨm with the fluorescent probe TMRE, respiration with an O2 electrode, and S-nitrosothiol content by chemiluminescence and biotin-switch.

[3] = cited from earlier work
[4] = test system: cell and organ models of ischemia-reperfusion; settings: cited from earlier work

SMILES: CC(SN=O)C(=O)NCC(=O)O (stereo not shown)
- recovery of rate pressure product (RPP) after ischemia-reperfusion versus control hearts (perfused rat hearts): greater
- S-nitrosation of mitochondrial proteins compared with S-nitrosoglutathione (mitochondrial proteins; same concentrations, 10-100 μM): much greater degree of S-nitrosation of mitochondrial proteins than did S-nitrosoglutathione
- effect on increase in mitochondrial H+ leak induced by ischemia-reperfusion [1]: prevent large increases in H^+ leak; also recorded: protect against the large increase in proton leak
- protection of cardiomyocyte viability from ischemia-reperfusion injury ([2]; 10 μM or 20 μM, 1 hour ischemia, 30 minutes reoxygenation): dose-dependent and significant protection
- protection of cardiomyocyte viability compared with ischemic preconditioning (IPC) ([2]; higher dose, 20 μM): more effective than IPC

SMILES: CC(S)C(=O)NCC(=O)O (stereo not shown) [2-mercaptopropionylglycine, 2-Mercaptopropionylglycine]
- bioavailability ([3]; in vivo): bioavailable
- cellular and mitochondrial distribution ([3]; radioactive tracer, whole animals): readily enters cells and accumulates in mitochondria
- concentrations required to elicit protection [4]: 0.3 to 1.0 mM

SMILES: NCCN(CCN)/[N+]([O-])=N/O [DETA-NONOate]
- S-nitrosation of entire mitochondrial protein extract, comparison of NO donors (mitochondrial proteins): S-nitrosoglutathione resulted in far more S-nitrosation than DETA-NONOate or ONOO^−

SMILES: O=NOO [ONOO^−, peroxynitrite]
- S-nitrosation of entire mitochondrial protein extract, comparison of NO donors (mitochondrial proteins): S-nitrosoglutathione resulted in far more S-nitrosation than DETA-NONOate or ONOO^−
